#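 GI50 is the concentration that inhibits growth by half. TGI: concentration producing complete growth inhibition.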
# Key:
# Assay in all cases: NCI tumour cell line growth inhibition, 384-well format
# MOLT-4 leukemia = test system: MOLT-4 leukemia
# NCI-H23 lung = test system: NCI-H23 lung
# RXF 393 renal = test system: RXF 393 renal
# CAKI-1 renal = test system: CAKI-1 renal
# PC-3 prostate = test system: PC-3 prostate
# EKVX NSCLC = test system: EKVX NSCLC
# MALME-3M melanoma = test system: MALME-3M melanoma
# NCI-H522 lung = test system: NCI-H522 lung
# NCI-H226 lung = test system: NCI-H226 lung
# NCI-H460 NSCLC = test system: NCI-H460 NSCLC
# OVCAR-8 ovarian = test system: OVCAR-8 ovarian
# TK-10 renal = test system: TK-10 renal
# U251 glioblastoma = test system: U251 glioblastoma
# A498 renal = test system: A498 renal
# HCT-116 colon = test system: HCT-116 colon
# IGROV1 ovarian = test system: IGROV1 ovarian
# M14 melanoma = test system: M14 melanoma
# MDA-MB-231 breast = test system: MDA-MB-231 breast
# OVCAR-3 ovarian = test system: OVCAR-3 ovarian
# SF-268 CNS = test system: SF-268 CNS
# SF-295 CNS = test system: SF-295 CNS
# ACHN renal = test system: ACHN renal
# MDA-MB-468 breast = test system: MDA-MB-468 breast
# SN12C renal = test system: SN12C renal
# A549 NSCLC = test system: A549 NSCLC
# CCRF-CEM leukemia = test system: CCRF-CEM leukemia
# HS 578T breast = test system: HS 578T breast
# SNB-75 CNS = test system: SNB-75 CNS
# NCI/ADR-RES ovarian = test system: NCI/ADR-RES ovarian
# HCT-15 colon = test system: HCT-15 colon
# T-47D breast = test system: T-47D breast
# HOP-92 NSCLC = test system: HOP-92 NSCLC
# UACC-62 melanoma = test system: UACC-62 melanoma
# OVCAR-5 ovarian = test system: OVCAR-5 ovarian
# SK-MEL-2 melanoma = test system: SK-MEL-2 melanoma
# UACC-257 melanoma = test system: UACC-257 melanoma
# 786-0 renal = test system: 786-0 renal
# K-562 leukemia = test system: K-562 leukemia
# SW-620 colon = test system: SW-620 colon
# HCC-2998 colon = test system: HCC-2998 colon
# COLO 205 colon = test system: COLO 205 colon
# HT29 colon = test system: HT29 colon
# UO-31 renal = test system: UO-31 renal
# RPMI-8226 leukemia = test system: RPMI-8226 leukemia
# MDA-MB-435 melanoma = test system: MDA-MB-435 melanoma
# LOX IMVI melanoma = test system: LOX IMVI melanoma
# DU-145 prostate = test system: DU-145 prostate
# OVCAR-4 ovarian = test system: OVCAR-4 ovarian
# HL-60(TB) leukemia = test system: HL-60(TB) leukemia
# SNB-19 CNS = test system: SNB-19 CNS
# KM12 colon = test system: KM12 colon
# SF-539 CNS = test system: SF-539 CNS
# HOP-62 NSCLC = test system: HOP-62 NSCLC
# SK-OV-3 ovarian = test system: SK-OV-3 ovarian
# BT-549 breast = test system: BT-549 breast
# MCF7 breast = test system: MCF7 breast
# SK-MEL-28 melanoma = test system: SK-MEL-28 melanoma
# NCI-H322M lung = test system: NCI-H322M lung
# SK-MEL-5 melanoma = test system: SK-MEL-5 melanoma
smiles,measurement,setting,value
CC[C@H](CC#N)OC(=O)N[C@@H](C)c1cccc(NC(=O)Nc2ccc(-c3cnco3)c(OC)c2)c1,GI50,MOLT-4 leukemia,20 nM
same,TGI,MOLT-4 leukemia,36.7 nM
same,GI50,NCI-H23 lung,154 nM
same,TGI,NCI-H23 lung,664 nM
same,GI50,RXF 393 renal,168 nM
same,TGI,RXF 393 renal,660 nM
same,GI50,CAKI-1 renal,243 nM
same,TGI,CAKI-1 renal,11900 nM
same,GI50,PC-3 prostate,178 nM
same,TGI,PC-3 prostate,10900 nM
same,GI50,EKVX NSCLC,349 nM
same,TGI,EKVX NSCLC,12300 nM
same,GI50,MALME-3M melanoma,168 nM
same,TGI,MALME-3M melanoma,13100 nM
same,GI50,NCI-H522 lung,428 nM
same,TGI,NCI-H522 lung,11900 nM
same,GI50,NCI-H226 lung,297 nM
same,TGI,NCI-H226 lung,10500 nM
same,GI50,NCI-H460 NSCLC,74 nM
same,TGI,NCI-H460 NSCLC,263 nM
same,GI50,OVCAR-8 ovarian,354 nM
same,TGI,OVCAR-8 ovarian,13900 nM
same,GI50,TK-10 renal,416 nM
same,TGI,TK-10 renal,18500 nM
same,GI50,U251 glioblastoma,45.5 nM
same,TGI,U251 glioblastoma,11400 nM
same,GI50,A498 renal,56.9 nM
same,TGI,A498 renal,1720 nM
same,GI50,HCT-116 colon,75 nM
same,TGI,HCT-116 colon,10600 nM
same,GI50,IGROV1 ovarian,60.7 nM
same,TGI,IGROV1 ovarian,10600 nM
same,GI50,M14 melanoma,159 nM
same,TGI,M14 melanoma,1140 nM
same,GI50,MDA-MB-231 breast,300 nM
same,TGI,MDA-MB-231 breast,20600 nM
same,GI50,OVCAR-3 ovarian,57.5 nM
same,TGI,OVCAR-3 ovarian,10600 nM
same,GI50,SF-268 CNS,244 nM
same,TGI,SF-268 CNS,11000 nM
same,GI50,SF-295 CNS,316 nM
same,TGI,SF-295 CNS,12000 nM
same,GI50,ACHN renal,210 nM
same,TGI,ACHN renal,12700 nM
same,GI50,MDA-MB-468 breast,140 nM
same,TGI,MDA-MB-468 breast,825 nM
same,GI50,SN12C renal,314 nM
same,TGI,SN12C renal,16600 nM
same,GI50,A549 NSCLC,65.7 nM
same,TGI,A549 NSCLC,1680 nM
same,GI50,CCRF-CEM leukemia,64.9 nM
same,TGI,CCRF-CEM leukemia,248 nM
same,GI50,HS 578T breast,171 nM
same,TGI,HS 578T breast,1540 nM
same,GI50,SNB-75 CNS,685 nM
same,TGI,SNB-75 CNS,14300 nM
same,GI50,NCI/ADR-RES ovarian,5600 nM
same,TGI,NCI/ADR-RES ovarian,18000 nM
same,GI50,HCT-15 colon,286 nM
same,TGI,HCT-15 colon,11800 nM
same,GI50,T-47D breast,486 nM
same,TGI,T-47D breast,10600 nM
same,GI50,HOP-92 NSCLC,637 nM
same,TGI,HOP-92 NSCLC,22700 nM
same,GI50,UACC-62 melanoma,236 nM
same,TGI,UACC-62 melanoma,10600 nM
same,GI50,OVCAR-5 ovarian,270 nM
same,TGI,OVCAR-5 ovarian,> 100000 nM
same,GI50,SK-MEL-2 melanoma,506 nM
same,TGI,SK-MEL-2 melanoma,4370 nM
same,GI50,UACC-257 melanoma,288 nM
same,TGI,UACC-257 melanoma,11500 nM
same,GI50,786-0 renal,154 nM
same,TGI,786-0 renal,1870 nM
same,GI50,K-562 leukemia,48.4 nM
same,TGI,K-562 leukemia,11200 nM
same,GI50,SW-620 colon,77.7 nM
same,TGI,SW-620 colon,12000 nM
same,GI50,HCC-2998 colon,212 nM
same,TGI,HCC-2998 colon,1450 nM
same,GI50,COLO 205 colon,46.3 nM
same,TGI,COLO 205 colon,13100 nM
same,GI50,HT29 colon,137 nM
same,TGI,HT29 colon,> 100000 nM
same,GI50,UO-31 renal,354 nM
same,TGI,UO-31 renal,8350 nM
same,GI50,RPMI-8226 leukemia,216 nM
same,TGI,RPMI-8226 leukemia,957 nM
same,GI50,MDA-MB-435 melanoma,353 nM
same,TGI,MDA-MB-435 melanoma,14600 nM
same,GI50,LOX IMVI melanoma,68.9 nM
same,TGI,LOX IMVI melanoma,1400 nM
same,GI50,DU-145 prostate,168 nM
same,TGI,DU-145 prostate,11000 nM
same,GI50,OVCAR-4 ovarian,373 nM
same,TGI,OVCAR-4 ovarian,15800 nM
same,GI50,HL-60(TB) leukemia,53.9 nM
same,TGI,HL-60(TB) leukemia,220 nM
same,GI50,SNB-19 CNS,166 nM
same,TGI,SNB-19 CNS,> 100000 nM
same,GI50,KM12 colon,168 nM
same,TGI,KM12 colon,12400 nM
same,GI50,SF-539 CNS,108 nM
same,TGI,SF-539 CNS,8860 nM
same,GI50,HOP-62 NSCLC,258 nM
same,TGI,HOP-62 NSCLC,10700 nM
same,GI50,SK-OV-3 ovarian,57.4 nM
same,TGI,SK-OV-3 ovarian,898 nM
same,GI50,BT-549 breast,115 nM
same,TGI,BT-549 breast,951 nM
same,GI50,MCF7 breast,159 nM
same,TGI,MCF7 breast,11300 nM
same,GI50,SK-MEL-28 melanoma,126 nM
same,TGI,SK-MEL-28 melanoma,11000 nM
same,GI50,NCI-H322M lung,275 nM
same,TGI,NCI-H322M lung,14700 nM
same,GI50,SK-MEL-5 melanoma,78.7 nM
same,TGI,SK-MEL-5 melanoma,348 nM
